In patent publication US8088772B2, “Sulfonamides and their use as a medicament” (The Genetics Company, Inc., priority 2006, dated 2012):

Key:
βCatenin-BCL9 = assay: ELISA based protein-protein interaction assay; format: binding; conditions: inhibition class of the βCatenin-BCL9 interaction
Experimental: In vitro ELISA-based Protein-protein Interaction Assay
Protein Production in Bacteria
cDNAs including the binding domains of Lgs and βCatenin were fused downstream of glutathione-S-transferase (GST) cDNA in pGEX-4T inducible bacterial expression vector (Pharmacia). Fusion proteins were produced in BL21 bacteria (e.g. Stratagene) following manufacturer's recommendation.
To isolate the produced fusions protein bacteria were lysed in sonication buffer (10 mM Tris HCl pH 8.0, 150 mM NaCl, 1 mM EDTA, 1.5% sarkosyl, 2% Triton-X-100, 1 mM DTT and protease inhibitors), followed by short sonication on ice (e.g. 3 times 20 seconds at middle power) and centrifugation. Cleared supernatants were incubated under gentle rotation with glutathione beads (Amersham Pharmacia) for 2 hrs at 4° C. Finally, beads were washed several time in washing buffer (20 mM Tris pH 8.0, 200 mM NaCl, 1 mM EDTA, 1 mM DTT, 1 mM MgCl2, 0.5% NP40), and stored in storage buffer (20 mM Tris pH 8.0, 200 mM NaCl, 1 mM EDTA, 1 mM DTT, 1 mM MgCl2, 10% glycerol, 0.5% NP40, and proteinase inhibitors). The quality of the preparations was checked by SDS-gel electrophoresis by standard methods well known by persons skilled in the art. […]

Wnt pathway = assay: Cell Assay (CA): inhibition of Wnt activity in cancer cells, Tcf reporter gene; format: cell-based; conditions: inhibition class in the Cell Assay
Excerpt: Inhibition of Wnt Activity in Cancer Cells
The effect of β-catenin/BCL9 inhibitors identified in the ELISA-based protein-protein interaction assay on the Wnt pathway can be evaluated in a cell culture system using a reporter gene responsive to the Tcf/Lef family of transcription factors or by quantitative analysis of Wnt target genes in appropriate cell lines.
A reporter gene is a construct which comprises a readily detectable or assayable gene such β-galactosidase, green fluorescent protein, chloramphenicol acetyltransferase or luciferase, linked in cis to a transcription factor response element and a minimal promoter. Depending on the expression vectors used, this protocol can be applied, e.g. for mammalian as well as for Drosophila cell lines. For instance, colon cancer cells with constitutively active Wnt pathway like DLD-1 or SW620 (ATCC) are a well suitable system. Hereby, a Tcf-4 driven luciferase reporter plasmid (i.e. TOP-FLASH, Upstate biotechnology, New York, USA) is transiently or stably transfected into cells known in the art. Any means for introducing genetic material into cells can be used, including but not limited to infection, electroporation or transfection. For instance, to introduce DNA into DLD-1 cells, a lipofection agent like the Lipofectamine transfection reagent (Life Technologies, Inc.) can be used. By transient transfection protocols, a second reporter gene, e.g. the renilla luciferase reporter plasmid pRL-SV40 (Promega Corporation, Madison USA), needs to be co-transfected to normalize for transfection efficiency. Drugs are added to the media 24 h after trans-fection (transient transfection) or 24 h after seeding of the cells (stably transfected cells). Cell extracts are prepared 24 to 48 h later and assayed for reporter gene activity as described by the manufacturer (eg. for luciferase activity: Promega Corporation). Compounds reducing reporter gene activity more than 50% compared to solvent alone treated cells are considered as hits. In parallel, toxicity can be assessed for instance by the yellow tetrazolium salt cell proliferation assay (MTT) assay.

For CC(=O)Nc1ccc(S(=O)(=O)NNc2ccc([N+](=O)[O-])cc2S(=O)(=O)Nc2ccccc2Cl)cc1 [TGC0011575], the ELISA (βCatenin-BCL9) was 1 (0-20% inhibition) and the CA (Wnt pathway) was 3 (41-60% inhibition).

For O=[N+]([O-])c1ccc(NNS(=O)(=O)c2ccc(Cl)cc2)c(S(=O)(=O)Nc2ccccc2Cl)c1 [TGC0011576], the ELISA (βCatenin-BCL9) was 3 (41-60% inhibition) and the CA (Wnt pathway) was 5 (81-100% inhibition).

In the case of CS(=O)(=O)c1ccc(S(=O)(=O)NNc2ccc([N+](=O)[O-])cc2S(=O)(=O)Nc2ccccc2Cl)cc1 [TGC0011577], the ELISA (βCatenin-BCL9) is reported as 4 (61-80% inhibition) and the CA (Wnt pathway) is reported as 1 (0-20% inhibition).

For CC(=O)c1ccc(S(=O)(=O)NNc2ccc([N+](=O)[O-])cc2S(=O)(=O)Nc2ccccc2Cl)cc1 [TGC0011581], the ELISA (βCatenin-BCL9) was 2 (21-40% inhibition) and the CA (Wnt pathway) was 1 (0-20% inhibition).

With COc1ccc(/C=N/Nc2ccc(N)cc2S(=O)(=O)Nc2ccccc2Cl)cc1OC [TGC0011584] the ELISA (βCatenin-BCL9) was 1 (0-20% inhibition) and the CA (Wnt pathway) was 3 (41-60% inhibition).

In the case of O=C(O)c1ccc(CNNc2ccc([N+](=O)[O-])cc2S(=O)(=O)Nc2ccccc2Cl)cc1 [TGC0011589], the ELISA (βCatenin-BCL9) is reported as 5 (81-100% inhibition) and the CA (Wnt pathway) is reported as 4 (61-80% inhibition).

For COC(=O)c1ccccc1S(=O)(=O)Nc1ccccc1Cl [TGC0011601], the ELISA (βCatenin-BCL9) was 1 (0-20% inhibition) and the CA (Wnt pathway) was 1 (0-20% inhibition).

In the case of O=[N+]([O-])c1ccc(NNCc2ccc(F)cc2)c(S(=O)(=O)Nc2ccccc2Cl)c1 [TGC0012257], the ELISA (βCatenin-BCL9) is reported as 1 (0-20% inhibition) and the CA (Wnt pathway) is reported as 1.5.

With O=[N+]([O-])c1ccc(NNCc2ccc3nonc3c2)c(S(=O)(=O)Nc2ccccc2Cl)c1 [TGC0012260] the ELISA (βCatenin-BCL9) was 4.5 and the CA (Wnt pathway) was 1.5.

With O=[N+]([O-])c1ccc(NNCc2cc(F)cc(F)c2)c(S(=O)(=O)Nc2ccccc2Cl)c1 [TGC0012266] the ELISA (βCatenin-BCL9) was 2.5 and the CA (Wnt pathway) was 1.5.
